From BindingDB's records for doi:10.7270/Q2F769ZM (The Scripps Research Institute Molecular Screening Center, 2007) come the findings set out here.

Where a name gives a salt, the structure may show the parent alone.

Sequence of Rho-associated protein kinase 2 (O75116 whole entry): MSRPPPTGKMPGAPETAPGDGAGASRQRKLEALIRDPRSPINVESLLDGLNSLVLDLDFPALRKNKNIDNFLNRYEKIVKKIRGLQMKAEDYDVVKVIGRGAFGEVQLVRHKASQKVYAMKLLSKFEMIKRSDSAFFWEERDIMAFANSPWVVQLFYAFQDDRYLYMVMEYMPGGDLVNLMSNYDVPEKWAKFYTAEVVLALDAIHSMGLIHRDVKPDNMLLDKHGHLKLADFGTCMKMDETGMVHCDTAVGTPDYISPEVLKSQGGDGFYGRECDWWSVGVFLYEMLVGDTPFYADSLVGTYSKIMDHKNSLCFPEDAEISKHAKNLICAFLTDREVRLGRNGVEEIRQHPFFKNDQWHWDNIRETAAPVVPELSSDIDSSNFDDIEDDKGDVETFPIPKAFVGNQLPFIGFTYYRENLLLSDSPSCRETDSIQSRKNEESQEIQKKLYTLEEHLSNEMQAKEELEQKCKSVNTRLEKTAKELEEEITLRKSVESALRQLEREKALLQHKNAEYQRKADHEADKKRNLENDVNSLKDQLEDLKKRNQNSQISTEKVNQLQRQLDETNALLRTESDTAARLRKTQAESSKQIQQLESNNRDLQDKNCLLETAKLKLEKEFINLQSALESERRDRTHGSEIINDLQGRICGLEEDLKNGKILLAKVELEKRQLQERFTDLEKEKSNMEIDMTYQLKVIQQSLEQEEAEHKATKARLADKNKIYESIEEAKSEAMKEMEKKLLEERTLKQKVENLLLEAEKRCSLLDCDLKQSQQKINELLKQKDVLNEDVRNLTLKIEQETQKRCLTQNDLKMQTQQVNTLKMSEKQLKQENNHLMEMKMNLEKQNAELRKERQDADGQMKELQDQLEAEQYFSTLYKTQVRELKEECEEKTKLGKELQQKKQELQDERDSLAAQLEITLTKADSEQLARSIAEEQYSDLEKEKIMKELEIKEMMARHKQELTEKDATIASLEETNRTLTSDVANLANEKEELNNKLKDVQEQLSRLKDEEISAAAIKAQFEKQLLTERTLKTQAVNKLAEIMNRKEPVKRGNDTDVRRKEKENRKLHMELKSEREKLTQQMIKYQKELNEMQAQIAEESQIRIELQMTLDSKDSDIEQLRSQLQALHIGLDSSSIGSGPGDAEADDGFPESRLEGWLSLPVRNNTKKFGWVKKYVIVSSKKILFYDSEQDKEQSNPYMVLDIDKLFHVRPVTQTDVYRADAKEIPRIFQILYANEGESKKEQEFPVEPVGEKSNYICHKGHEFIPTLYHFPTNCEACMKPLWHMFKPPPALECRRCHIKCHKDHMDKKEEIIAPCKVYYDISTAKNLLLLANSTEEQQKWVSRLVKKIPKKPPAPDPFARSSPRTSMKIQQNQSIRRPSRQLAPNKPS

The first assay concerns the target Rho-associated protein kinase 2 (Homo sapiens, UniProt O75116). Description: human Rho kinase 2 inhibition – biochemical, Kinase-Glo luminescence, S6 peptide, 1536-well, dose response (AID 644).
Conditions: not given
(In general: Kinase-Glo reads ATP consumption through a luciferase reaction.)
Consider `c1ccc(OCCCc2nc(-c3ccncc3)no2)cc1` [4-[5-(3-phenoxypropyl)-1,2,4-oxadiazol-3-yl]pyridine], for which the IC50 (usually the concentration needed to halve the response being measured) was more than 59.6 µM. Turning to `Cc1c2ccncc2c(C)c2c1[nH]c1ccccc12` [5,11-dimethyl-2H-pyrido[4,3-b]carbazole], the IC50 is 6.68 µM. On the same count and under the same terms, the figure for `Clc1ccccc1-c1nn2c(-c3ccncc3)nnc2s1` [6-(2-chlorophenyl)-3-(4-pyridinyl)[1,2,4]triazolo[3,4-b][1,3,4]thiadiazole] is more than 59.6 µM; for `CCOC(=O)C1=C(CSc2nc(-c3ccncc3)ccc2C#N)OC(=N)C(C#N)C1c1cccnc1` (centres undefined) [6-amino-5-cyano-2-[[(3-cyano-6-pyridin-4-yl-2-pyridinyl)thio]methyl]-4-(3-pyridinyl)-4H-pyran-3-carboxylic acid ethyl ester] it is more than 19.9 µM; for `Oc1ncnc2cc(Cl)ccc12` [7-Chloro-quinazolin-4-ol] it is more than 19.9 µM.

For `c1ccc2c(c1)[nH]c1cnccc12` [9H-pyrido[3,4-b]indole], the IC50 is more than 19.9 µM. Same read-out and setting: the result for `Cc1cc(N2CCOCC2)c2c(N)c(C)cc(C)c2n1` [(2,6,8-trimethyl-4-morpholino-5-quinolyl)amine] reads more than 59.6 µM.

The compound `Cc1onc(-c2ccccc2)c1C(=O)N1CCN(C/C=C/c2ccccc2)CC1` [(5-methyl-3-phenyl-1,2-oxazol-4-yl)-[4-[(E)-3-phenylprop-2-enyl]piperazin-1-yl]methanone;hydrochloride] yielded an IC50 of more than 59.6 µM.

The compound `COC(=O)c1cccc2c1-c1ccccc1C2N=O` (centres undefined) [(9Z)-9-hydroximinofluorene-4-carboxylic acid methyl ester] had a half-maximal inhibitory concentration (IC50) of more than 19.9 µM. Still for that read-out and setting: the figure for `Cc1ccccc1NC(=O)Cn1c(C)nc2ccc(NC(=O)C3CC3)cc2c1=O` [Cyclopropanecarboxylic acid [2-methyl-4-oxo-3-(o-tolylcarbamoyl-methyl)-3,4-dihydro-quinazolin-6-yl]-amide] is more than 59.6 µM; for `CC(C)[C@H]1C(=O)N2CCC[C@H]2[C@]2(O)O[C@](NC(=O)[C@@H]3C=C4c5cccc6[nH]cc(c56)C[C@H]4N(C)C3)(C(C)C)C(=O)N12` [ERGOCORNINE] it is more than 59.6 µM; for `CCc1cc2c(O)ncnc2s1` [MLS000029626] it is 5.72 µM. `C(=Nc1nc2ccccc2n1CCN1CCCCC1)c1cccs1` [MLS000038975]: the IC50 is more than 59.6 µM. Same read-out and setting: the figure for `CCCCCC(=O)Nc1ccc2oc(-c3ccncc3)nc2c1` [MLS000039066] is more than 19.9 µM. The same measure, in the same setting: the result for `Cc1[nH]c2ccccc2c1C1=CCNCC1` [MLS000045807] reads 9.63 µM. The same measure, in the same setting: the figure for `O=C1NC(=O)c2cc(NC(=O)C3CCCCC3)ccc21` [MLS000062910] is more than 19.9 µM. In the case of `Cc1cc(NC(=O)CSc2nc(-c3ccccc3)cs2)no1` [MLS000066259], the half-inhibitory concentration (IC50) is more than 59.6 µM. Compound `Cc1cc(=O)n(-c2ccccc2)[nH]1` [MLS000069602] yielded a 50% inhibitory concentration (IC50) of more than 59.6 µM.

Compound `CC(C)C(NC(=O)C1CCCCC1)C(=O)Nc1ccncc1` (centres undefined) [MLS000090506] had an IC50 of 2.3 µM. On to `Cc1cc(Cl)ccc1OCc1nnc(-c2ccc(O)cc2)[nH]1` [MLS000097369], for which the IC50 was more than 19.9 µM. `N#Cc1cccc(NC(=O)CSc2ccccc2)c1` [MLS000099417]: the IC50 was more than 19.9 µM. Same read-out and setting: the result for `CN(CCO)c1ncnc2nc[nH]c12` [MLS000101269] reads 7.91 µM. The same measure, in the same setting: the result for `CCCCC(=O)Nc1ccc2c(c1)C(=O)NC2=O` [MLS000103070] reads more than 19.9 µM; that for `O=NCc1c[nH]c2ccccc12` [MLS000104363], 4.81 µM; that for `O=C(Nc1ccncc1)C1CCCN(S(=O)(=O)c2cccc3cccnc23)C1` (centres undefined) [MLS000118826], 1.73 µM. The same measure, in the same setting: the result for `Cn1c(C(=O)N2CCCC(C(=O)N3CCN(C(=O)c4ccco4)CC3)C2)cc2sccc21` (centres undefined) [MLS000119519] reads more than 59.6 µM; that for `CCN(CC)CCNC(=O)CCCCn1c(=S)[nH]c2c([nH]c3ccc(OC)cc32)c1=O` [N-[2-(diethylamino)ethyl]-5-(8-methoxy-4-oxo-2-thioxo-1,2,4,5-tetrahydro-3H-pyrimido[5,4-b]indol-3-yl)pentanamide], more than 19.9 µM. Compound `c1cn(CCCNc2ncnc3nc[nH]c23)cn1` [N-[3-(1-imidazolyl)propyl]-7H-purin-6-amine] registered a 50% inhibitory concentration (IC50) of 6.18 µM. On the same count and under the same terms, the figure for `C1=C(c2ccccc2)CCN(c2[nH]cnc3ncnc2-3)C1` [SMR000017661] is more than 19.9 µM.

Still in this assay, the particulars now being: inactive by the depositor's call.
The compound `COCCN(CCOC)S(=O)(=O)c1ccc(C(=O)Nc2nc(-c3ccncc3)cs2)cc1` [4-[bis(2-methoxyethyl)sulfamoyl]-N-(4-pyridin-4-yl-1,3-thiazol-2-yl)benzamide] came in with an IC50 of 41.2 µM. On the same count and under the same terms, the result for `CCC(=O)Nc1ccc(C(=O)Cn2nc(C(=O)O)c3ccccc3c2=O)cc1` [4-keto-3-[2-keto-2-(4-propionamidophenyl)ethyl]phthalazine-1-carboxylic acid] reads 11 µM; that for `CC(=O)c1cc(C#N)c(SCc2ccncc2)nc1C` [5-acetyl-6-methyl-2-(4-pyridylmethylthio)nicotinonitrile], 12.3 µM. The same measure, in the same setting: the result for `O=C(Oc1cccc2c(=O)[nH]ccc12)c1ccccc1` [(1-oxo-2H-isoquinolin-5-yl) benzoate] reads 55.7 µM; that for `O=C(NCc1ccc2c(c1)OCO2)c1ccc2snnc2c1` [Benzo[1,2,3]thiadiazole-5-carboxylic acid (benzo[1,3]dioxol-5-ylmethyl)-amide], 11.6 µM; that for `O=C(c1ccccc1)c1ccc2[nH]cnc2c1` [MLS000034982], 16.3 µM. `Cc1cc2c(ccc3[nH]onc32)n1` [MLS000038925] came in with an IC50 of 18.8 µM. Compound `CCOC1(OCC)N=C(N)C2(C#N)C(c3ccc(NC(C)=O)cc3)C12C#N` (centres undefined) [MLS000085499] registered a half-maximal inhibitory concentration (IC50) of 445 µM. Still for that read-out and setting: the result for `COc1ccc(N2CCN(c3ncnc4[nH]cnc34)CC2)cc1` [MLS000101243] reads 16.5 µM. On the same count and under the same terms, the result for `CN(C)c1ccc(-c2ccncc2)cc1` [MLS000105960] reads 31.8 µM; that for `O=C(Nc1ccc(N2CCOCC2)cc1)Nc1ccc2nc(-c3ccco3)c(-c3ccco3)nc2c1` [N-(2,3-di-2-furyl-6-quinoxalinyl)-N'-[4-(4-morpholinyl)phenyl]urea], 25.6 µM. Still for that read-out and setting: the result for `Cc1cccc(Nc2ncnc3[nH]cnc23)c1` [N-(3-methylphenyl)-7H-purin-6-amine] reads 13 µM. For `c1nc(NC2CCCCC2)c2[nH]cnc2n1` [N-cyclohexyl-7H-purin-6-amine], the midpoint of inhibition, the IC50, lay at 15.3 µM. The same measure, in the same setting: the figure for `N#Cc1cccc(NC(=O)NCCc2c[nH]c3ccccc23)c1` [SMR000096894] is 16.1 µM; for `Nc1cccc2cnccc12` [isoquinolin-5-amine] it is 30.1 µM.
